Source: patent US5466716A, “Liposomal trimethylsphingosine” (The Biomembrane Institute, priority 1994, dated 1995)
Entries after “also recorded” stand apart in the source; their conditions may differ.

Key:
erythrocytes = test: erythrocyte metabolic activity under blood storage conditions; assay type: cell-based; conditions: in vitro, normal blood storage conditions
Text: Similar results can be expected for leukocytes and platelets.

[1] = system: human gastric cancer cell line MKN-74; test: tritiated thymidine incorporation, tumor cell growth (MKN-74); assay type: cell-based; conditions: MKN-74, FIG. 2C
Text: (§1) FIGS. 2A-2C show the effect of sphingosine derivatives on human tumor cell growth. In FIG. 2A the growth of human colonic cancer cell line COLO-205 was monitored. In FIG. 2B the growth of human lung cancer cell line LU-65 was monitored. In FIG. 2C the growth of human gastric cancer cell line MKN-74 was monitored. In each Figure the ordinate represents the percent inhibition of tritiated thymidine incorporation, the solid circles represent sphingosine, the open circles represent N,N-dimethylsphingosine and the triangles represent N,N,N-trimethylsphingosine.
(§2) An in vitro assay relying on tritiated thymidine incorporation can be used to ascertain the effect of various compounds on cell proliferation. Briefly, tumor cells are seeded in flat bottom 96 well plates (Corning, N.Y.) at a concentration of 2×10^4 cells per well. The cells are cultured for 2 days in DMEM containing various concentrations of sphingoid, which is added as a PBS solution. The medium then is supplemented with tritiated thymidine at a concentration of 0.5 μCi per well. Following a six hour incubation the cells are collected using the PHD Cell Harvester (Cambridge Technology, Cambridge, Mass.) and amounts of incorporated radioactivity are determined after adding a suitable cell lysing agent and scintillation cocktail, such as ScintiVerse BD (Fisher Scientific, Fairlawn, Calif.) which performs both functions. […]

BL6 melanoma cells = test: melanoma BL6 cell proliferation (thymidine incorporation); assay type: cell-based; conditions: BL6, FIG. 5A
Text: (§3) FIGS. 5A and 5B depict the effect of N,N,N-trimethylsphingosine (open circles), N,N-dimethylsphingosine (solid circles) and sphingosine (open squares) on two melanoma cell lines, BL6, a highly malignant cell line (in FIG. 5A) and F1, a cell line of low malignancy, (in FIG. 5B). Cell proliferation was evidenced by tritiated thymidine incorporation into DNA.
(§4) An in vitro assay relying on tritiated thymidine incorporation can be used to ascertain the effect of various compounds on cell proliferation. Briefly, tumor cells are seeded in flat bottom 96 well plates (Corning, N.Y.) at a concentration of 2×10^4 cells per well. The cells are cultured for 2 days in DMEM containing various concentrations of sphingoid, which is added as a PBS solution. The medium then is supplemented with tritiated thymidine at a concentration of 0.5 μCi per well. Following a six hour incubation the cells are collected using the PHD Cell Harvester (Cambridge Technology, Cambridge, Mass.) and amounts of incorporated radioactivity are determined after adding a suitable cell lysing agent and scintillation cocktail, such as ScintiVerse BD (Fisher Scientific, Fairlawn, Calif.) which performs both functions.
(§5) Certain cancer cells show a higher metastatic potential and invasive capability than others. For example the BL6 and F10 melanoma cell lines are highly metastatic and invasive. […]

F1 melanoma cells = test: melanoma F1 cell proliferation (thymidine incorporation); assay type: cell-based; conditions: F1, FIG. 5B
Text: as §3, §4, §5

[2] = system: human colonic cancer cell line COLO-205; test: tritiated thymidine incorporation, tumor cell growth (COLO-205); assay type: cell-based; conditions: COLO-205, FIG. 2A
Text: as §1, §2

HUVEC's = test: morphologic damage to endothelial cells (HUVEC's); assay type: cell-based, human; conditions: staurosporine 2 μM, calphostin C 5 μM
Procedure: A characteristic of neutrophils is the ability to adhere to activiated EC's and to migrate through the EC monolayer into the vascular or extravascular matrix. The effect of TMS on neutrophil interactions with EC's and their subsequent trans-endothelial migration thereof can be monitored in vitro using human umbilical endothelial cells (HUVEC's) (Luscinskas et al., J. Imm., 146, 1617, 1991). Neutrophils are added to a HUVEC monolayer and neutrophil-HUVEC interactions are assessed microscopically following fixation, embedding and staining of monolayer sections.
HUVEC's and culture media were purchased from Cell Systems (Kirkland, Wash.). The cells were maintained and cultured as described in Luscinskas et al., supra, with some modifications. Briefly, HUVEC's were maintained in 10 ml tissue culture flasks on a collagen type I bed obtained from rat tail (Upstate Biotechnology Inc, Lake Placid, N.Y.) with CS-complete medium, CS-growth factor and CS-AF-1 (Cell Systems). Cells became confluent within 2 to 4 days when incubated in 5% CO2 at 37° C.
The HUVEC monolayer in 24-well tissue culture plates were washed with M199 without FCS, then incubated with 1 ml/well of IL-1β (Boehringer Mannheim Biochemical Products, Indianapolis, Ind.) dissolved in M199 with 1% heat-inactivated FCS (HIFCS) at 10 U/ml. The plates were incubated at 37° C., 5% CO2 for 4 hr then washed gently with 1 ml of M199. […]

Row | Compound | erythrocyte metabolic activity (erythrocytes) | inhibition of tumor cell growth [1] | inhibition of cell growth (BL6 melanoma cells) | inhibition of cell growth (F1 melanoma cells) | inhibition of tumor cell growth [2] | morphologic damage to EC's (HUVEC's)
1 | CCCCCCCCCCCCC/C=C/[C@@H](O)[C@H](CO)[N+](C)(C)C [TMS, N,N,N-trimethylsphingosine] | retards erythrocyte metabolic activity | superior to sphingosine; also recorded: showed an advantage over DMS | more effective than DMS and sphingosine; also recorded: BL6 cells were more sensitive to TMS treatment | more effective than DMS and sphingosine | superior to sphingosine; also recorded: showed an advantage over DMS | –
2 | Calphostin C | – | – | – | – | – | striking morphologic damage to EC's
